# Target: T1, human ferroportin (Homo sapiens, UniProt Q9NP59)
# T1 construct: expressed in transfected cells
# T1 sequence (Q9NP59 1-571): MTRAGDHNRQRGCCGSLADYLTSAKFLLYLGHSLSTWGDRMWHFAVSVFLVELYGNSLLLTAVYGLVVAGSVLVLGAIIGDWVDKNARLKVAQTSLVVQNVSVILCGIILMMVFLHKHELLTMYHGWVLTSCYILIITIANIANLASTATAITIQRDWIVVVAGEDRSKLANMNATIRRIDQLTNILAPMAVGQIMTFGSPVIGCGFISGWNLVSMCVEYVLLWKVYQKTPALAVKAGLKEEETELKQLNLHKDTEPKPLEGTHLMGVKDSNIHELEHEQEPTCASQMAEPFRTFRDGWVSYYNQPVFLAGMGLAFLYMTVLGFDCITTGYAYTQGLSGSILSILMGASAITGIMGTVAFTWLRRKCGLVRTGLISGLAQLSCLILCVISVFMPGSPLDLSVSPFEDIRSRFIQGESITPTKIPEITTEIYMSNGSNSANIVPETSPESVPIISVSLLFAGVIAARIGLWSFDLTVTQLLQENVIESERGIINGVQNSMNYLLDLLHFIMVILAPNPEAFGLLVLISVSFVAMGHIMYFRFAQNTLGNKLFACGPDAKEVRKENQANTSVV
# Assay: ferroportin internalization assay (inhibition of hepcidin-induced internalization of Fpn)
# Assay type: cell-based
# Details: MDCK-FPN-HaloTag cells, 100 nM hepcidin, overnight incubation; concentration range from 0.04 to 40 μM
# Experimental: The hepcidin-antagonistic action of the sulfonaminoquinoline compounds of the present invention was determined by means of the “ferroportin internalization assay” described in the following.
# Organic compounds of low molecular weight which counteract the biological actions of hepcidin on its receptor, the iron exporter ferroportin (Fpn), were identified on the basis of their ability to inhibit hepcidin-induced internalization of Fpn in living cells. For this purpose, a stable cell line (Madin-Darby canine kidney, MDCK) was produced which constitutively expresses human ferroportin fused recombinantly at its C terminus with a fluorescent reporter protein (HaloTag®, Promega Corp.). The internalization of Fpn was monitored by labelling these cells with fluorescent ligands (HaloTag®-TMR, tetramethylrhodamine) which join covalently on to the HaloTag reporter gene fused with the Fpn. […] Optimized image analysis algorithms were used to ascertain the cell surface and to quantify the corresponding membrane fluorescence associated with the Fpn-HaloTag fusion protein. This assay allows a quantitative image-based analysis in order to quickly evaluate compounds which can block hepcidin-induced internalization of Fpn. This assay is a direct in vitro pendant of the in vivo action mechanism proposed for medicament candidates and is therefore suitable as an initial assay with a high throughput for identifying compounds which counteract the action of hepcidin on its receptor ferroportin.
# • 7,500 cells per well (MDCK-FPN-HaloTag) were transinoculated in 50 μl of DMEM medium (Dulbeccos Modified Eagle Medium with 10% foetal bovine serum (FBS), which contained 1% penicillin, 1% streptomycin and 450 μg/ml of G-418) in microtitre plates with 384 wells (384 Cell carrier plates, Perkin Elmer, cat. no. 6007430), followed by incubation overnight at 37° C./5% CO2. • The volume of the medium was reduced to 10 μl, and 10 μl of 5 μM HaloTag-TMR ligands (Promega, cat. no. G 8251) were added in DMEM medium in order to stain the Fpn-HaloTag fusion protein. • 15 min incubation at 37° C./5% CO2 • The HaloTag-TMR ligand was removed and the cells were washed with fresh DMEM medium and the volume was reduced to 20 μl of DMEM medium. • 3 μl per well of a solution of the test compound (dissolved DMSO) were added ([…]). • 7 μl of […] hepcidin (Peptides International, cat. no. PLP-4392-s, 100 μM stock solution diluted in water in DMEM medium) were added per well up to a final hepcidin concentration of 100 nM. • The cells were incubated overnight at 37° C./5% CO2. • The cells were fixed by adding paraformaldehyde (PFA, Electron Microscopy Sciences, cat. no. 15710-S) directly to the cells up to a final concentration of 4%, followed by incubation at room temperature for 15-20 minutes. • The PFA solution was removed and the cells were washed with PBS (phosphate-buffered saline solution), in each case 30 μl remaining in the plate. • 20 μl of Draq5 (Biostatus, cat. no. DR 51000) were added up to a final concentration of 2.5 μM in order to stain the cell nuclei, and the plates were sealed with a foil plate seal. • The plates were analysed with the Opera Plate Imager (Opera Confocal Plate Imager, Perkin Elmer) with 7 images per well; 440 ms exposure time per image, […] focal point height.
row,SMILES,IC50 [µM]
1,"COc1ccc(C2c3ccc4cccnc4c3NS(=O)(=O)N2C)cc1 (centres unmarked) [Example 390, 1-(4-Methoxy-phenyl)-2-methyl-1,4-dihydro-2H-3-thia-2,4,5-triaza-phenanthrene 3,3-dioxide]",2.24
2,"CNC(=O)c1ccc2c(c1)-c1ccc3cccnc3c1NS2(=O)=O [Example 522, 6,6-Dioxo-5,6-dihydro-6λ*6*-thia-4,5-diaza-chrysene-9-carboxylic acid methylamide]",13.2
3,"O=S1(=O)Nc2c(ccc3c(-n4cccn4)ccnc23)-c2ccccc21 [Example 494, 1-Pyrazol-1-yl-5H-6-thia-4,5-diaza-chrysene 6,6-dioxide]",3.53
4,"CN1Cc2ccc3cccnc3c2NS1(=O)=O [Example 405, 2-Methyl-1,4-dihydro-2H-3-thia-2,4,5-triaza-phenanthrene 3,3-dioxide]",6.5
5,"N#Cc1ccc2c(c1)-c1ccc3cccnc3c1NS2(=O)=O [Example 308, 6,6-Dioxo-5,6-dihydro-6λ*6*-thia-4,5-diaza-chrysene-9-carbonitrile]",2.83
6,"O=S1(=O)Nc2c(ccc3cccnc23)-c2cccnc21 [Example 318, 11H-12-Thia-1,10,11-triaza-chrysene 12,12-dioxide]",6.15
7,"CN1C(c2ccc(F)cc2)c2cc(Cl)c3cccnc3c2NS1(=O)=O (centres unmarked) [Example 401, 9-Chloro-1-(4-fluoro-phenyl)-2-methyl-1,4-dihydro-2H-3-thia-2,4,5-triaza-phenanthrene 3,3-dioxide]",12.5
8,"CN1C(c2ccc(F)cc2)c2ccc3cccnc3c2NS1(=O)=O (centres unmarked) [Example 382, 1-(4-Fluoro-phenyl)-2-methyl-1,4-dihydro-2H-3-thia-2,4,5-triaza-phenanthrene 3,3-dioxide]",0.34
9,"O=S1(=O)Nc2c(cc(NCCN3CCOCC3)c3cccnc23)-c2ccccc21 [Example 547, (6,6-Dioxo-5,6-dihydro-6λ*6*-thia-4,5-diaza-chrysen-12-yl)-(2-morpholin-4-yl-ethyl)-amine]",22
10,"CN(C)C(=O)c1ccnc2c3c(ccc12)-c1ccccc1S(=O)(=O)N3 [Example 541, 6,6-Dioxo-5,6-dihydro-6λ*6*-thia-4,5-diaza-chrysene-1-carboxylic acid dimethylamide]",21
11,"CN1C(c2ccc(OC(F)(F)F)cc2)c2ccc3cccnc3c2NS1(=O)=O (centres unmarked) [Example 393, 2-Methyl-1-(4-trifluoromethoxy-phenyl)-1,4-dihydro-2H-3-thia-2,4,5-triaza-phenanthrene 3,3-dioxide]",1.15
12,"Cc1ccc2c(c1)S(=O)(=O)Nc1c-2ccc2cccnc12 [Example 329, 8-Methyl-5H-6-thia-4,5-diaza-chrysene 6,6-dioxide]",0.36
13,"CN(C)C(=O)c1ccc2c(c1)-c1cc(Cl)c3cccnc3c1NS2(=O)=O [Example 525, 12-Chloro-6,6-dioxo-5,6-dihydro-6λ*6*-thia-4,5-diaza-chrysene-9-carboxylic acid dimethylamide]",4.06
14,"N#Cc1ccc(S(=O)(=O)Nc2cc(OC(F)(F)F)cc3cccnc23)cn1 [Example 238, 6-Cyano-pyridine-3-sulfonic acid (6-trifluoromethoxy-quinolin-8-yl)-amide]",2.11
15,"Cc1cc2c(cc1C)S(=O)(=O)Nc1c-2ccc2cccnc12 [Example 104, 8,9-Dimethyl-5H-6-thia-4,5-diaza-chrysene 6,6-dioxide]",4.02
16,"Cc1ccc(C2c3ccc4cccnc4c3NS(=O)(=O)N2C)cc1 (centres unmarked) [Example 383, 2-Methyl-1-p-tolyl-1,4-dihydro-2H-3-thia-2,4,5-triaza-phenanthrene 3,3-dioxide]",0.6
17,"CNC(=O)c1ccnc2c3c(ccc12)-c1ccccc1S(=O)(=O)N3 [Example 542, 6,6-Dioxo-5,6-dihydro-6λ*6*-thia-4,5-diaza-chrysene-1-carboxylic acid methylamide]",4.77

# The remaining lines, values ahead:
row,IC50 [µM],SMILES
1,0.413,"N#Cc1cccc(S(=O)(=O)Nc2cccc3cccnc23)c1 [Example 16, 3-Cyano-N-quinolin-8-yl-benzenesulfonamide]"
2,4.58,"O=S(=O)(Nc1cccc2cccnc12)c1nccs1 [Example 231, Thiazole-2-sulfonic acid quinolin-8-ylamide]"
3,0.61,"Cc1cnc2c(NS(=O)(=O)c3ccccc3)cccc2c1 [Example 45, N-(3-Methyl-quinolin-8-yl)-benzenesulfonamide]"
4,0.989,"O=S(=O)(Nc1cccc2cccnc12)c1ccc(Cl)cc1Cl [Example 41, 2,4-Dichloro-N-quinolin-8-yl-benzenesulfonamide]"
5,0.78,"O=S(=O)(Nc1cc(F)cc2cccnc12)c1ccccc1 [Example 75, N-(6-Fluoro-quinolin-8-yl)-benzenesulfonamide]"
6,3.94,"Nc1cc(F)ccc1S(=O)(=O)Nc1cccc2cccnc12 [Example 31, 2-Amino-4-fluoro-N-quinolin-8-yl-benzenesulfonamide]"
7,10.4,"NC(=O)c1ccnc2c(NS(=O)(=O)c3ccccc3)cccc12 [Example 539, 8-Benzenesulfonylamino-quinoline-4-carboxylic acid amide]"
8,2.06,"O=S(=O)(Nc1cccc2cccnc12)c1cnc2ccccc2c1 [Example 88, Quinoline-3-sulfonic acid quinolin-8-ylamide]"
9,1.3,"Cc1cnc2c(NS(=O)(=O)c3ccc(Cl)cc3F)cccc2c1 [Example 71, 4-Chloro-2-fluoro-N-(3-methyl-quinolin-8-yl)-benzenesulfonamide]"
10,2.3,"O=S(=O)(Nc1ccccc1)Nc1cccc2cccnc12 [Example 46, N-phenyl(quinolin-8-ylamino)sulfonamide]"
11,1,"O=S(=O)(Nc1cccc2cccnc12)c1ccc(C(F)(F)F)cc1 [Example 17, N-Quinolin-8-yl-4-trifluoromethyl-benzenesulfonamide]"
12,1.5,"Cc1c(F)cccc1S(=O)(=O)Nc1cccc2cccnc12 [Example 83, 3-Fluoro-2-methyl-N-quinolin-8-yl-benzenesulfonamide]"
13,2.18,"Cc1cc(NS(=O)(=O)c2ccccc2)c2ncccc2c1 [Example 77, N-(6-Methyl-quinolin-8-yl)-benzenesulfonamide]"
14,6.24,"CNC(=O)c1ccnc2c(NS(=O)(=O)c3ccccc3)cccc12 [Example 538, 8-Benzenesulfonylamino-quinoline-4-carboxylic acid methylamide]"
15,3.84,"O=S(=O)(Nc1cc(OC(F)(F)F)cc2cccnc12)c1cccnc1 [Example 237, Pyridine-3-sulfonic acid (6-trifluoromethoxy-quinolin-8-yl)-amide]"
16,1,"O=S(=O)(Nc1cc(F)cc2cccnc12)c1c(F)cccc1F [Example 94, 2,6-Difluoro-N-(6-fluoro-quinolin-8-yl)-benzenesulfonamide]"
17,58.1,"COC(=O)c1ccccc1S(=O)(=O)Nc1cccc2cccnc12 [Example 39, 2-(Quinolin-8-ylsulfamoyl)-benzoic acid methyl ester]"
18,1.37,"CC(=O)Nc1ccccc1S(=O)(=O)Nc1cccc2cccnc12 [Example 50, N-[2-(Quinolin-8-ylsulfamoyl)-phenyl]-acetamide]"

# — patent publication US9102688B2, “Sulfonaminoquinoline hepcidin antagonists” (Vifor (International) AG, priority 2011, dated 2015)
